Assay results taken from PMC5947317 (ACS chemical biology, 2017).
Like-named read-outs stand apart in the source and are kept apart here.

Assays:
HA-UCHL1 [1] = target: T1, HA-UCHL1 (Homo sapiens, UniProt P09936); test: AlphaLISA DUB assay miniaturized to 1536-well format; assay type: biochemical
T1 sequence (P09936 1-223): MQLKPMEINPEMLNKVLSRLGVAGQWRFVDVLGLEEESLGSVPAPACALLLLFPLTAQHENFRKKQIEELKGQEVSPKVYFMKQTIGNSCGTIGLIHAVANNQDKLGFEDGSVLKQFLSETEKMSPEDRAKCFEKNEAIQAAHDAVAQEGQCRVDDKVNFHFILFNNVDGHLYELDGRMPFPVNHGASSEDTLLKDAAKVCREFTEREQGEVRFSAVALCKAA

UCHL1 [2] = target: T2, UCHL1 (Homo sapiens, UniProt P09936); test: Ub-AMC assay with recombinant UCHL1; assay type: biochemical; conditions: for difference in IC50 value (selectivity for UCHL1): versus UCHL3, UCHL5, USP2 catalytic core
T2 sequence (P09936 1-223): T1 sequence (P09936 1-223)

UCHL1 [3] = target: T2, UCHL1; test: Rapid dilution reversibility assay; assay type: biochemical; conditions: incubated at ten times IC50, diluted 100-fold; normalized to DMSO
UCHL3 = target: T3, UCHL3 (Homo sapiens, UniProt P15374); test: Ub-AMC selectivity assay, UCHL3; assay type: biochemical; conditions: 114 μM
T3 sequence (P15374 1-230): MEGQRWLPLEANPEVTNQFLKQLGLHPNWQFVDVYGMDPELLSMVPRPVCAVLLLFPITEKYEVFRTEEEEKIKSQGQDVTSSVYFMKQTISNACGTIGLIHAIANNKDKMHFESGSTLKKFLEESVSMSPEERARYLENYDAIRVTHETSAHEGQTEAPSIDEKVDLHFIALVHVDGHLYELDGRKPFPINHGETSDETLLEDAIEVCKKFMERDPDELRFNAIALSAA

UCHL5 = target: T4, UCHL5 (Homo sapiens, UniProt Q9Y5K5); test: Ub-AMC selectivity assay, UCHL5; assay type: biochemical; conditions: 114 μM
T4 sequence (Q9Y5K5 1-329): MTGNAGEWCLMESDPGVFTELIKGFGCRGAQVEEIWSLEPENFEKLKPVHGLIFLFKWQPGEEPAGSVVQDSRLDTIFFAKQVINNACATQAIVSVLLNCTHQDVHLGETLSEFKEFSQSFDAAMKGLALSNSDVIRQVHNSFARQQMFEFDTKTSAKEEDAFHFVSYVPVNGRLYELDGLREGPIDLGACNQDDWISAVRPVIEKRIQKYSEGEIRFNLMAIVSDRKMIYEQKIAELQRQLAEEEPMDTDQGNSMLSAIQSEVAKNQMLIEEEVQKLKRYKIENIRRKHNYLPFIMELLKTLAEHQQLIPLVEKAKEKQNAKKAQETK

USP2 catalytic core = target: T5, USP2 catalytic core (Homo sapiens, UniProt O75604); test: Ub-AMC selectivity assay, USP2 catalytic core; assay type: biochemical; conditions: 114 μM
T5 sequence (O75604 267-599 limits assumed): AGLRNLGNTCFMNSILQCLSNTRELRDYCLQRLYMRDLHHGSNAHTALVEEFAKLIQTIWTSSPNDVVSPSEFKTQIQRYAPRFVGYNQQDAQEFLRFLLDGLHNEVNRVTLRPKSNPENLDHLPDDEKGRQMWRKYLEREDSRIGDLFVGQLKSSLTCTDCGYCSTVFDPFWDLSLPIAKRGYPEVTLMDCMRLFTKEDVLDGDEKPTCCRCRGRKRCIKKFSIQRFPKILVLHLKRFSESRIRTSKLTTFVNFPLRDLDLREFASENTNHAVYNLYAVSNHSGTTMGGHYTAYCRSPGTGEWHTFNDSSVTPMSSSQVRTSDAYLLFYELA

full length USP15 = target: T6, full length USP15 (Homo sapiens, UniProt Q9Y4E8); test: Ub-AMC selectivity assay, full length USP15; assay type: biochemical; conditions: 114 μM
T6 sequence (Q9Y4E8 1-981): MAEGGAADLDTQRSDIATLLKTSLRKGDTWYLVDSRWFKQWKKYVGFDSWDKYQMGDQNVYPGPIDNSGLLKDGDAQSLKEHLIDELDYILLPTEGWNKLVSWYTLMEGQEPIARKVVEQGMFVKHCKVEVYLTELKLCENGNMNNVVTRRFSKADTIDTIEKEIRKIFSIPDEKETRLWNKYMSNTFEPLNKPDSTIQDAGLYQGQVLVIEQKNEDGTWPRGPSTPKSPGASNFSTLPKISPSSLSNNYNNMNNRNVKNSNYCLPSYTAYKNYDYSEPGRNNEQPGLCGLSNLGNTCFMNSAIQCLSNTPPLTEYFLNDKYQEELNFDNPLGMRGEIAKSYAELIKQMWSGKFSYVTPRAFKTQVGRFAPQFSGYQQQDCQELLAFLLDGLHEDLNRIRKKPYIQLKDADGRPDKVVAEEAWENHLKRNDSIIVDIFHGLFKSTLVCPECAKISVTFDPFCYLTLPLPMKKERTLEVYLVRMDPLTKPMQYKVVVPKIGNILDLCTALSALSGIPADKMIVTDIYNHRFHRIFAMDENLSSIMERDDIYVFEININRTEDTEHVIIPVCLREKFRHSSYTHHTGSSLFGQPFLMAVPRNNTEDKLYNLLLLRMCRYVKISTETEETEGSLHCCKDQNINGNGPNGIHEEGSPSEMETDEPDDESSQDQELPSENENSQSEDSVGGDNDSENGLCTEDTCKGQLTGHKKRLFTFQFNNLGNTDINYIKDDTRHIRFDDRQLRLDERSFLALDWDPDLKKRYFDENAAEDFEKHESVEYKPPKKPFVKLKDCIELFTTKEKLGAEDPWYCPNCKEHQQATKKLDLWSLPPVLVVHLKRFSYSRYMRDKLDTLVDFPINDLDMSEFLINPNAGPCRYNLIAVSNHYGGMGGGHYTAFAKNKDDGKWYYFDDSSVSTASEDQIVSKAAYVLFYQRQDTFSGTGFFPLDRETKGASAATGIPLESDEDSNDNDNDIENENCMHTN

HA-UCHL1 [4] = target: T1, HA-UCHL1; test: Cell lysate AlphaLISA DUB assay, 384-well format; assay type: biochemical; conditions: 384-well plate format; dose-response
UCHL1 [5] = conditions: cited from earlier work
HA-UCHL1 [6] = target: T1, HA-UCHL1; conditions: HEK293T cell lysates; Western blot, anti-HA
endogenous UCHL1 = target: T7, endogenous UCHL1 (Homo sapiens, UniProt P09936); assay type: biochemical; conditions: 100 μM and 20 μM of compound; HEK293T cell lysates
T7 sequence (P09936 1-223): T1 sequence (P09936 1-223)

Q: With `COC(=O)C1=CO[C@@H](C)[C@@H]2CN3CCc4c([nH]c5ccc(OC)cc45)[C@@H]3C[C@H]12` [(-)-aricine] as the compound, how does the IC50 (HA-UCHL1 [1]; read-out: IC50 determined in the qHTS, qHTS, data not shown) read?
A: 38.5 µM

Q: And the IC50 (UCHL1 [2]; Ub-AMC as substrate)?
A: 47.7 µM

Q: What about the “recovered UCHL1 activity after rapid dilution” value (shortened to “recovered UCHL1 activity”) (UCHL1 [3]) of the same compound?
A: > 80%

Q: What about the “inhibition at highest inhibitor concentration” value (UCHL3) of the same compound?
A: no significant inhibition

Q: What about the “inhibition at highest inhibitor concentration” value (UCHL5) of the same compound?
A: no significant inhibition

Q: What about the “inhibition at highest inhibitor concentration” value (USP2 catalytic core) of the same compound?
A: no significant inhibition

Q: What about the “inhibition at highest inhibitor concentration” value (full length USP15) of the same compound?
A: no significant inhibition

Q: Which results are given for `Cc1cnc(-c2ccccc2C(C)C)nc1NCc1ccc(-n2ccnn2)cc1` [ML323]?
A: inhibition in the AlphaLISA assay (HA-UCHL1 [4]): no obvious inhibition; activity against UCHL1 (UCHL1 [5]): inactive; inhibition of UCHL1 labeling by biotin-UbVMe (HA-UCHL1 [6]): did not inhibit the labeling

Q: Which “recovered UCHL1 activity” value (UCHL1 [3]) does the source give for `CCN1C(=O)C=CC1=O` [NEM, N-ethylmaleimide, reference compound] here?
A: 3.9%

Q: For `CC(=O)Oc1c2c(c(CC=C(C)C)c3c1C(=O)C1=C[C@@H]4CC5C(C)(C)OC(C/C=C(\C)C(=O)O)(C4=O)[C@@]15O3)OC(C)(CCC=C(C)C)C=C2` (some centres unmarked) [acetyl isogambogic acid], which IC50 (HA-UCHL1 [1]) is on record?
A: 30.6 µM

Q: And the “selectivity among UCHs and USPs tested” value (UCHL1 [2]; UCHL1 versus UCHL3, UCHL5, USP2 catalytic core, USP15, Ub-AMC)?
A: more promiscuous inhibitors

Q: What about the “recovered UCHL1 activity” value (UCHL1 [3]) of the same compound?
A: > 80%

Q: And the “inhibition of endogenous UCHL1 labeling by HA-UbVMe” value (“inhibition … by HA-UbVMe” below) (endogenous UCHL1)?
A: stronger inhibition

Q: With `CC1=C(O)C(=O)C=C2C1=CC=C1[C@@]2(C)CC[C@@]2(C)[C@@H]3C[C@](C)(C(=O)O)CC[C@]3(C)CC[C@]12C` [celastrol] as the compound, how does the IC50 (HA-UCHL1 [1]) read?
A: 4.46 µM

Q: And the “difference in IC50 value (selectivity for UCHL1)” value (UCHL1 [2]; USP15, Ub-AMC)?
A: ≥ 4 fold

Q: And the “recovered UCHL1 activity” value (UCHL1 [3])?
A: > 80%

Q: And the “inhibition … by HA-UbVMe” value (endogenous UCHL1)?
A: stronger inhibition

Q: For `O=c1c2cc(O)c(O)cc2oc2cc(O)c([C@@H]3O[C@H](CO)[C@@H](O)[C@H](O)[C@H]3O)c(O)c12` [mangiferin], which IC50 (HA-UCHL1 [1]) is on record?
A: 1.12 µM

Q: What about the IC50 (UCHL1 [2]) of the same compound?
A: 8.9 µM

Q: And the “difference in IC50 value (selectivity for UCHL1)” value (UCHL1 [2]; USP15, Ub-AMC)?
A: ≥ 4 fold

Q: And the “recovered UCHL1 activity” value (UCHL1 [3])?
A: > 80%

Q: What about the “inhibition … by HA-UbVMe” value (endogenous UCHL1) of the same compound?
A: stronger inhibition

Q: For `CO[C@H]1/C=C/O[C@@]2(C)Oc3c(C)c(O)c4c(O)c(c(/C=N/N5CCN(C)CC5)c(O)c4c3C2=O)NC(=O)/C(C)=C\C=C\[C@H](C)[C@H](O)[C@@H](C)[C@@H](O)[C@@H](C)[C@H](OC(C)=O)[C@@H]1C` [rifampicin, reference compound], which IC50 (HA-UCHL1 [1]) is on record?
A: 38.5 µM

Q: And the IC50 (UCHL1 [2])?
A: 19.5 µM
